# According to patent US8829034B2, “Compounds which modulate the CB2 receptor” (Boehringer Ingerlheim International GmbH, priority 2006, dated 2014):
# pEC50: −log10 of the molar value.
# Target: T1, human CB2R (Homo sapiens, UniProt P34972)
# T1 construct: host or cells: CHO cells
# Experiment: CB2R mediated modulation of cAMP synthesis
# Assay type: cell-based
# Conditions: for agonistic activity: found through the use of the above described assays
# Summary of the method: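 CHO cells expressing human CB2R were treated with compound for 30 min at 37 °C in buffer containing 1 mM IBMX, 0.25% BSA and 10 uM forskolin. cAMP was measured after lysis. EC50 was taken as 50% inhibition of forskolin-stimulated cAMP, with 100% defined by 1 uM CP55940, using a four-parameter logistic fit.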
# T1 sequence (P34972 whole entry): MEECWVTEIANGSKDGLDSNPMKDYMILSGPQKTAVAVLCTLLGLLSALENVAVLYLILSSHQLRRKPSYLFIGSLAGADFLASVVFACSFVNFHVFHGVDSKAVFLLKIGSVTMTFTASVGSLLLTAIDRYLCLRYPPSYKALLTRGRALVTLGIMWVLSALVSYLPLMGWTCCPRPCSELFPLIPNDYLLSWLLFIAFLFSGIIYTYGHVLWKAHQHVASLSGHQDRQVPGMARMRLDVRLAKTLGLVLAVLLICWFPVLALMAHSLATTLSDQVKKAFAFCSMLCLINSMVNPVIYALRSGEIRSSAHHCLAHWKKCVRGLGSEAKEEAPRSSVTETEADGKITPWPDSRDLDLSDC
agonistic activity,Compound,pEC50
agonistic activity,CC(C)S(=O)(=O)C(C)(C)C(=O)Nc1nc(-c2ccccc2)cs1 [2-Methyl-N-(4-phenyl-thiazol-2-yl)-2-(propane-2-sulfonyl)-propionamide],–
agonistic activity,CC(C)S(=O)(=O)C(C)(C)C(=O)Nc1nc2ccccc2s1 [N-Benzothiazol-2-yl-2-methyl-2-(propane-2-sulfonyl)-propionamide],–
agonistic activity,CC(C)S(=O)(=O)C(C)(C)C(=O)Nc1cc(-c2cccs2)nn1C [2-Methyl-N-(2-methyl-5-thiophen-2-yl-2H-pyrazol-3-yl)-2-(propane-2-sulfonyl)-propionamide],–
agonistic activity,CC(C)(C)c1cc(NC(=O)C(C)(C)S(=O)(=O)C(C)(C)C)no1 [N-(5-tert-Butyl-isoxazol-3-yl)-2-methyl-2-(2-methyl-propane-2-sulfonyl)-propionamide],–
agonistic activity,Cn1nc(-c2ccccc2)cc1NC(=O)C(C)(C)S(=O)(=O)C1CCOCC1 [2-Methyl-N-(2-methyl-5-phenyl-2H-pyrazol-3-yl)-2-(tetrahydro-pyran-4-sulfonyl)-propionamide],–
agonistic activity,CCC(C)S(=O)(=O)C(C)(C)C(=O)Nc1ccc(C(F)(F)F)cn1 (stereo not shown) [2-(Butane-2-sulfonyl)-2-methyl-N-(5-trifluoromethyl-pyridin-2-yl)-propionamide],–

# The remaining lines, values behind:
Compound,agonistic activity,pEC50
CC(C)S(=O)(=O)C(C)(C)C(=O)Nc1nc(-c2ccccn2)cs1 [2-Methyl-2-(propane-2-sulfonyl)-N-(4-pyridin-2-yl-thiazol-2-yl)-propionamide],agonistic activity,–
CC(C)(C(=O)Nc1cccc2ccccc12)S(=O)(=O)CC1CCOCC1 [2-Methyl-N-naphthalen-1-yl-2-(tetrahydro-pyran-4-ylmethanesulfonyl)-propionamide],agonistic activity,–
CC(C)(C)c1cc(NC(=O)C(C)(C)S(=O)(=O)CC2CC2)on1 [N-(3-tert-Butyl-isoxazol-5-yl)-2-cyclopropylmethanesulfonyl-2-methyl-propionamide],agonistic activity,7.90
CCCS(=O)(=O)C(C)(C)C(=O)Nc1cc(C(C)(C)C)nn1C [N-(5-tert-Butyl-2-methyl-2H-pyrazol-3-yl)-2-methyl-2-(propane-1-sulfonyl)-propionamide],agonistic activity,–
CC(C)(C(=O)Nc1ccc(C(F)(F)F)cn1)S(=O)(=O)CC1CCOCC1 [2-Methyl-2-(tetrahydro-pyran-4-ylmethanesulfonyl)-N-(5-trifluoromethyl-pyridin-2-yl)-propionamide],agonistic activity,7.14
